According to PubChem BioAssay AID272 (DTP/NCI, 2004):
Several values for one entry are separate records, joined by “and”; a condition that tells them apart may be missing. Equal entries are not always repeated. Inconclusive results are not listed.

System: Lewis lung carcinoma i.m., BDF1 mice, T/C %
Test: NCI In Vivo Anticancer Drug Screen. Data for tumor model Lewis Lung Carcinoma (intramuscular) in B6D2F1 (BDF1) mice
Method in brief: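 Compound given to mice with transplantable tumours; survival or tumour size compared against the vehicle control group, reported as T divided by C.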

Question: How did the T/C (endpoint: mean tumor weight (est.), dose: 25.0 mg/kg/injection, schedule: Q01DX011 (ip), vehicle: water, higher = larger tumour) turn out when CC(=O)OCC1OC(n2ncc(=O)[nH]c2=O)C(OC(C)=O)C1OC(C)=O (stereo not given) was run?
Answer: 89 % of control

Question: What about the T/C (endpoint: mean tumor weight (est.), dose: 50.0 mg/kg/injection, schedule: Q01DX011 (ip), vehicle: water, higher = larger tumour) of the same compound?
Answer: 62 % of control

Question: And the T/C (endpoint: mean tumor weight (est.), dose: 200.0 mg/kg/injection, schedule: Q01DX011 (ip), vehicle: water, higher = larger tumour)?
Answer: 75 % of control

Question: What about the T/C (endpoint: mean tumor weight (est.), dose: 400.0 mg/kg/injection, schedule: Q01DX011 (ip), vehicle: water, higher = larger tumour) of the same compound?
Answer: 85 % of control

Question: And the T/C (endpoint: mean tumor weight (est.), dose: 800.0 mg/kg/injection, schedule: Q01DX011 (ip), vehicle: water, higher = larger tumour)?
Answer: 40 % of control

Question: And the T/C (endpoint: mean tumor weight (est.), dose: 1600.0 mg/kg/injection, schedule: Q01DX011 (ip), vehicle: water, higher = larger tumour)?
Answer: 56 % of control

Question: What about the T/C (endpoint: mean tumor weight, dose: 25.0 mg/kg/injection, schedule: Q01DX011 (ip), vehicle: Klucel (hydroxypropylcellulose) (HPC), higher = larger tumour) of the same compound?
Answer: 78 % of control

Question: What about the T/C (endpoint: mean tumor weight, dose: 50.0 mg/kg/injection, schedule: Q01DX011 (ip), vehicle: Klucel (hydroxypropylcellulose) (HPC), higher = larger tumour) of the same compound?
Answer: 71 % of control

Question: What about the T/C (endpoint: mean tumor weight, dose: 100.0 mg/kg/injection, schedule: Q01DX011 (ip), vehicle: Klucel (hydroxypropylcellulose) (HPC), higher = larger tumour) of the same compound?
Answer: 65 % of control

Question: What about the T/C (endpoint: mean tumor weight, dose: 200.0 mg/kg/injection, schedule: Q01DX011 (ip), vehicle: Klucel (hydroxypropylcellulose) (HPC), higher = larger tumour) of the same compound?
Answer: 68 % of control

Question: And the T/C (endpoint: mean tumor weight, dose: 400.0 mg/kg/injection, schedule: Q01DX011 (ip), vehicle: Klucel (hydroxypropylcellulose) (HPC), higher = larger tumour)?
Answer: 93 % of control

Question: What about the T/C (endpoint: mean tumor weight, dose: 800.0 mg/kg/injection, schedule: Q01DX011 (ip), vehicle: Klucel (hydroxypropylcellulose) (HPC), higher = larger tumour) of the same compound?
Answer: 37 % of control

Question: And the T/C (endpoint: median survival time, dose: 25.0 mg/kg/injection, schedule: Q01DX011 (ip), vehicle: Klucel (hydroxypropylcellulose) (HPC), higher = longer survival)?
Answer: 110 % of control

Question: And the T/C (endpoint: median survival time, dose: 25.0 mg/kg/injection, schedule: Q01DX011 (ip), vehicle: water, higher = longer survival)?
Answer: 92 % of control

Question: What about the T/C (endpoint: median survival time, dose: 50.0 mg/kg/injection, schedule: Q01DX011 (ip), vehicle: Klucel (hydroxypropylcellulose) (HPC), higher = longer survival) of the same compound?
Answer: 94 % of control

Question: And the T/C (endpoint: median survival time, dose: 50.0 mg/kg/injection, schedule: Q01DX011 (ip), vehicle: water, higher = longer survival)?
Answer: 103 % of control

Question: And the T/C (endpoint: median survival time, dose: 100.0 mg/kg/injection, schedule: Q01DX011 (ip), vehicle: Klucel (hydroxypropylcellulose) (HPC), higher = longer survival)?
Answer: 112 % of control

Question: What about the T/C (endpoint: median survival time, dose: 200.0 mg/kg/injection, schedule: Q01DX011 (ip), vehicle: water, higher = longer survival) of the same compound?
Answer: 98 % of control

Question: And the T/C (endpoint: median survival time, dose: 400.0 mg/kg/injection, schedule: Q01DX011 (ip), vehicle: Klucel (hydroxypropylcellulose) (HPC), higher = longer survival)?
Answer: 104 % of control

Question: What about the T/C (endpoint: median survival time, dose: 400.0 mg/kg/injection, schedule: Q01DX011 (ip), vehicle: water, higher = longer survival) of the same compound?
Answer: 121 % of control

Question: What about the T/C (endpoint: median survival time, dose: 800.0 mg/kg/injection, schedule: Q01DX011 (ip), vehicle: Klucel (hydroxypropylcellulose) (HPC), higher = longer survival) of the same compound?
Answer: 124 % of control

Question: And the T/C (endpoint: median survival time, dose: 800.0 mg/kg/injection, schedule: Q01DX011 (ip), vehicle: water, higher = longer survival)?
Answer: 88 % of control

Question: What about the T/C (endpoint: median survival time, dose: 1600.0 mg/kg/injection, schedule: Q01DX011 (ip), vehicle: water, higher = longer survival) of the same compound?
Answer: 111 % of control

Question: How did the T/C (endpoint: median survival time, dose: 0.62 mg/kg/injection, schedule: Q01DX011 (ip), vehicle: water, higher = longer survival) turn out when CC(=O)C(O)N1C(=O)C=CC1=O (stereo not given) was run?
Answer: 88 % of control

Question: What about the T/C (endpoint: median survival time, dose: 1.25 mg/kg/injection, schedule: Q#A X022 (ip), vehicle: water, higher = longer survival) of the same compound?
Answer: 120 % of control

Question: What about the T/C (endpoint: median survival time, dose: 2.5 mg/kg/injection, schedule: Q01DX011 (ip), vehicle: water, higher = longer survival) of the same compound?
Answer: 123 % of control

Question: What about the T/C (endpoint: median survival time, dose: 2.5 mg/kg/injection, schedule: Q#A X022 (ip), vehicle: water, higher = longer survival) of the same compound?
Answer: 120 % of control

Question: And the T/C (endpoint: median survival time, dose: 5.0 mg/kg/injection, schedule: Q#A X022 (ip), vehicle: water, higher = longer survival)?
Answer: 113 % of control

Question: Which T/C (endpoint: mean tumor weight (est.), dose: 0.06 mg/kg/injection, schedule: Q01DX011 (ip), vehicle: saline, higher = larger tumour) does the source give for CCCCCCCCCCCCCC[n+]1ccccc1 here?
Answer: 82 % of control

Question: And the T/C (endpoint: mean tumor weight (est.), dose: 0.07 mg/kg/injection, schedule: Q01DX011 (ip), vehicle: saline, higher = larger tumour)?
Answer: 46 % of control

Question: What about the T/C (endpoint: mean tumor weight (est.), dose: 0.12 mg/kg/injection, schedule: Q01DX011 (ip), vehicle: saline, higher = larger tumour) of the same compound?
Answer: 80 % of control

Question: What about the T/C (endpoint: mean tumor weight (est.), dose: 0.13 mg/kg/injection, schedule: Q01DX011 (ip), vehicle: saline, higher = larger tumour) of the same compound?
Answer: 42 % of control

Question: And the T/C (endpoint: mean tumor weight (est.), dose: 0.5 mg/kg/injection, schedule: Q01DX011 (ip), vehicle: saline, higher = larger tumour)?
Answer: 84 % of control

Question: And the T/C (endpoint: median survival time, dose: 0.06 mg/kg/injection, schedule: Q01DX011 (ip), vehicle: saline, higher = longer survival)?
Answer: 100 % of control

Question: What about the T/C (endpoint: median survival time, dose: 0.07 mg/kg/injection, schedule: Q01DX011 (ip), vehicle: saline, higher = longer survival) of the same compound?
Answer: 93 % of control

Question: And the T/C (endpoint: median survival time, dose: 0.12 mg/kg/injection, schedule: Q01DX011 (ip), vehicle: saline, higher = longer survival)?
Answer: 100 % of control

Question: What about the T/C (endpoint: median survival time, dose: 0.13 mg/kg/injection, schedule: Q01DX011 (ip), vehicle: saline, higher = longer survival) of the same compound?
Answer: 100 % of control

Question: And the T/C (endpoint: median survival time, dose: 0.25 mg/kg/injection, schedule: Q01DX011 (ip), vehicle: saline, higher = longer survival)?
Answer: 91 % of control and 94 % of control

Question: What about the T/C (endpoint: median survival time, dose: 0.5 mg/kg/injection, schedule: Q01DX011 (ip), vehicle: saline, higher = longer survival) of the same compound?
Answer: 100 % of control

Question: Which results are given for CCOC(N)=O?
Answer: T/C (endpoint: median survival time, dose: 25.0 mg/kg/injection, schedule: Q01DX011 (ip), vehicle: saline, higher = longer survival): 110 % of control; T/C (endpoint: median survival time, dose: 100.0 mg/kg/injection, schedule: Q01DX011 (ip), vehicle: saline, higher = longer survival): 100 % of control; T/C (endpoint: median survival time, dose: 200.0 mg/kg/injection, schedule: Q01DX011 (ip), vehicle: saline, higher = longer survival): 104 % of control; T/C (endpoint: median survival time, dose: 400.0 mg/kg/injection, schedule: Q01DX011 (ip), vehicle: saline, higher = longer survival): 110 % of control

Question: What does the source list for Cc1n(CC(C)C)c2c([n+]1C)C(=O)c1ccccc1C2=O?
Answer: T/C (endpoint: mean tumor weight (est.), dose: 2.0 mg/kg/injection, schedule: Q01DX011 (ip), vehicle: saline with Tween-80, higher = larger tumour): 40 % of control; T/C (endpoint: median survival time, dose: 2.0 mg/kg/injection, schedule: Q01DX011 (ip), vehicle: saline with Tween-80, higher = longer survival): 91 % of control
